Patent publication US20190335746A1, “ANTIMICROBIAL GAS RELEASING AGENTS AND SYSTEMS AND METHODS FOR USING THE SAME” (priority 2016, published 2019)

Assay: Spiking the product matrices with ClO2 gas
Conditions: product matrices spiked with ClO2 gas
Source text: Headspace samples underwent a colorimetric analysis for ClO2 gas.

[O][Cl+][O-] [ClO2 gas, chlorine dioxide]
chlorine dioxide in the residual juice and tomato samples after spiking: no detectable chlorine dioxide
